Test results: patent publication US20110189297A1, “STABLE SOLID ORAL DOSAGE CO-FORMULATIONS” (Sequicia Pharmaceuticals, priority 2008, published 2011)

What was measured:
CYP3A = conditions: human liver microsomes, in vitro; cited from earlier work
[1] = Dissolution study of hand-filled capsules in simulated gastric fluid, HPLC; assay type: physicochemical; conditions: capsule in 500 mL simulated gastric fluid
Procedure: Commercially available 200 mg Reyataz hard gelatin capsules (lot number 6E3004B) were emptied by hand to create a stockpile of Atazanavir (ATV) commercial powder. This commercially available 200 mg Reyataz capsule contains 200 mg ATV as Atazanavir sulphate plus 178 mg of excipients (crospovidone, lactose monohydrate and magnesium stearate) for a total weigh to of 378 mg. 189 mg of the stockpiled commercial powder (equivalent to 100 mg Atazanavir) was blended by tumbling in a glass vial with 100 mg of the spray-dried amorphous dispersion (SDD) of Compound II/EUDRAGIT L-100 (EL-100) where the Compound II:EL100 ratio was 1:1 (produced by Hovione FarmaCientia) and filled by hand into “0” hard gelatin capsules. Therefore, each hand-filled “0” hard gelatin capsule contained 100 mg ATV, […] of Compound II:EL100 (1:1) SDD and 89 mg of excipients. These capsules were dropped into 500 mL of simulated gastric fluid and the amounts of Compound II and ATV in the resulting suspension was determined by HPLC (see Table 1 and FIG. 1).

[2] = Pharmacokinetic study in beagle dogs, oral dry powder in capsules; assay type: in vivo
Procedure: A pharmacokinetic study was performed in beagle dogs to evaluate the performance of the oral dosage formulation prepared in Example 1 above. […] Both plasma levels and duration of exposure was increased.
The plasma exposure of the compound of Formula II from Compound II:EL100 (1:1) SDD powder alone was compared to co-administration with Atazanavir powder (FIG. 3). The ratio of the AUCs from mean plasma concentrations was 2.5, but the differences among individual animal was not statistically significant. The apparent increase in mean Compound II exposure came mostly later in the time course, after 8 hours.

[3] = Inherent anti-retroviral activity

Row | ratio of the AUCs from mean plasma concentrations of Compound II ([2]; 10 mg/kg Compound II from Compound II:EL100 (1:1) SDD with 20 mg/kg Atazanavir vs alone) | Cmax of Compound II, change on co-administration ([2]; Compound II:EL100 (1:1) SDD with Atazanavir vs alone) | % of maximal Compound II Conc. ([1]; 0 min) [%] | % of maximal Compound II Conc. ([1]; 5 min) [%] | % of maximal Compound II Conc. ([1]; 10 min) [%] | % of maximal Compound II Conc. ([1]; 15 min) [%] | % of maximal Compound II Conc. ([1]; 20 min) [%] | % of maximal Compound II Conc. ([1]; 25 min) [%] | % of maximal Compound II Conc. ([1]; 30 min) [%] | SMILES | metabolising enzyme (CYP3A) | % of maximal ATV Conc. ([1]; 0 min) [%] | % of maximal ATV Conc. ([1]; 5 min) [%] | % of maximal ATV Conc. ([1]; 10 min) [%] | % of maximal ATV Conc. ([1]; 15 min) [%] | % of maximal ATV Conc. ([1]; 20 min) [%] | % of maximal ATV Conc. ([1]; 25 min) [%] | % of maximal ATV Conc. ([1]; 30 min) [%] | inherent anti-retroviral activity [3]
1 | – | – | – | – | – | – | – | – | – | COC(=O)N[C@H](C(=O)N[C@@H](Cc1ccccc1)[C@@H](O)CN(Cc1ccc(-c2ccccn2)cc1)NC(=O)[C@@H](NC(=O)OC)C(C)(C)C)C(C)(C)C.O=S(=O)(O)O [Atazanavir, Atazanavir sulfate, reference compound] | metabolized by CYP3A | 0 | 88.9 | 93.4 | 100.0 | 99.4 | 99.1 | 97.9 | –
2 | 2.5 | slightly increased | 0 | 27.6 | 61.9 | 54.5 | 88.2 | 89.8 | 100.0 | CO[C@H](CN(CC(C)C)S(=O)(=O)c1ccc2occc2c1)[C@H](Cc1ccccc1)NC(=O)OC(C)(C)C [Compound II] | – | – | – | – | – | – | – | – | no inherent anti-retroviral activity
